Assays:
[1] = test system: K562; assay: Cytotoxicity against human K562 cells assessed as cell viability after 72 hrs by celltiter-blue assay; type: functional, cell-based; details: K562, 72 h
[2] = test system: MCF7; assay: Cytotoxicity against human MCF7 cells assessed as cell viability after 72 hrs by celltiter-blue assay; type: functional, cell-based; details: MCF7, 72 h
[3] = test system: A549; assay: Cytotoxicity against human A549 cells assessed as cell viability after 72 hrs by celltiter-blue assay; type: functional, cell-based; details: A549, 72 h
[4] = Chemical stability of the compound in DMSO by NMR analysis; type: physicochemical

| SMILES | IC50 [1] [nM] | IC50 [2] [nM] | IC50 [3] [nM] | Stability [4] |
| --- | --- | --- | --- | --- |
| C/C=C(\C)[C@H]1OC(=O)[C@@H](C)NC(=O)[C@H]([C@@H](C)CC)NC(=O)CN(C)C(=O)[C@@H](Cc2ccccc2)N(C)C(=O)[C@@H](C)NC(=O)[C@@H](CC(C)C)OC(=O)/C(C)=C/C[C@H](O)[C@@H]1C | 584 | 1640 | 1040 |  |
| CC[C@H](C)[C@H](NC(=O)CN(C)C(=O)[C@@H](Cc1ccccc1)N(C)C(=O)[C@H](C)NC(=O)[C@H](O)CC(C)C)C(=O)O | > 10000 | > 10000 | > 10000 |  |
| C/C=C(\C)[C@H]1OC(=O)[C@@H](C)NC(=O)[C@H]([C@@H](C)CC)NC(=O)CN(C)C(=O)[C@@H](Cc2ccccc2)N(C)C(=O)[C@H](C)NC(=O)[C@@H](CC(C)C)OC(=O)/C(C)=C/C[C@H](OCSC)[C@@H]1C | 0.0063 | 6.3 | 0.00019 |  |
| C/C=C(\C)[C@H]1OC(=O)[C@@H](C)NC(=O)[C@H]([C@@H](C)CC)NC(=O)CN(C)C(=O)[C@@H](Cc2ccc(Cl)cc2)N(C)C(=O)[C@H](C)NC(=O)[C@@H](CC(C)C)OC(=O)/C(C)=C/C[C@H](O)[C@@H]1C | 1.1e-05 | 0.003 | 1e-05 |  |
| C/C=C(\C)[C@@H](O)[C@@H](C)[C@@H]1C/C=C(\C)C(=O)O[C@H](CC(C)C)C(=O)N[C@@H](C)C(=O)N(C)[C@H](Cc2ccc(Cl)cc2)C(=O)N(C)CC(=O)N[C@@H]([C@@H](C)CC)C(=O)N[C@H](C)C(=O)O1 | 0.000216 | 0.025 | 2e-05 |  |
| C/C=C(\C)[C@H]1OC(=O)[C@@H](C)NC(=O)[C@H]([C@@H](C)CC)NC(=O)CN(C)C(=O)[C@@H](Cc2ccccc2)N(C)C(=O)[C@@H](C)NC(=O)[C@@H](CC(C)C)OC(=O)/C(C)=C/C[C@H](OCSC)[C@@H]1C | 1190 | > 10000 | 4340 |  |
| C/C=C(\C)[C@H]1OC(=O)[C@@H](C)NC(=O)[C@H]([C@@H](C)CC)NC(=O)CN(C)C(=O)[C@@H](Cc2ccc(Cl)cc2)N(C)C(=O)[C@H](C)NC(=O)[C@@H](CC(C)C)OC(=O)/C(C)=C/C[C@H](OCSC)[C@@H]1C | 7.1 | 6.5 | 0.73 |  |
| C/C=C(\C)[C@H]1OC(=O)[C@@H](C)NC(=O)[C@H]([C@@H](C)CC)NC(=O)CN(C)C(=O)[C@@H](Cc2ccccc2)N(C)C(=O)[C@H](C)NC(=O)[C@@H](CC(C)C)OC(=O)/C(C)=C/C[C@H](OC(=O)c2ccccc2)[C@@H]1C | 1.8 | 2.9 | 0.00058 |  |
| C/C=C(\C)[C@H]1OC(=O)[C@@H](C)NC(=O)[C@H]([C@@H](C)CC)NC(=O)CN(C)C(=O)[C@@H](Cc2ccccc2)N(C)C(=O)[C@H](C)NC(=O)[C@@H](CC(C)C)OC(=O)/C(C)=C/C[C@H](O)[C@@H]1C | 0.0031 | 0.22 | 0.0021 | Stable |
| C/C=C(\C)[C@@H](OC(=O)[C@@H](C)N)[C@@H](C)C(C/C=C(\C)C(=O)O[C@H](CC(C)C)C(=O)N[C@@H](C)C(=O)N(C)[C@H](Cc1ccccc1)C(=O)N(C)CC(=O)N[C@H](C(=O)O)[C@@H](C)CC)OCSC (single isomer, unassigned) | > 10000 | > 10000 | > 10000 |  |
| C/C=C(\C)[C@@H](O)[C@@H](C)[C@@H]1C/C=C(\C)C(=O)O[C@H](CC(C)C)C(=O)N[C@@H](C)C(=O)N(C)[C@H](Cc2ccccc2)C(=O)N(C)CC(=O)N[C@@H]([C@@H](C)CC)C(=O)N[C@H](C)C(=O)O1 | 0.012 | 0.29 | 0.0014 | Stable |
| C/C=C(\C)[C@@H](O)[C@@H](C)[C@@H]1C/C=C(\C)C(=O)O[C@H](CC(C)C)C(=O)N[C@H](C)C(=O)N(C)[C@H](Cc2ccccc2)C(=O)N(C)CC(=O)N[C@@H]([C@@H](C)CC)C(=O)N[C@H](C)C(=O)O1 | 925 | 3690 | 1080 |  |
